# Experimental data: ChEMBL document CHEMBL3526048, “In vitro metabolism of rivoglitazone, a novel peroxisome proliferator-activated receptor γ agonist, in rat, monkey, and human liver microsomes and freshly isolated hepatocytes” (Drug Metab Dispos, 2011)
# Legend:
# Cytochrome P450 2C8 = molecular target: T1, Cytochrome P450 2C8 (Homo sapiens, UniProt P10632); assay: Activity of human CYP2C8 expressed in microsomes isolated from baculovirus infected insect cell assessed as enzyme-mediated (2S,3S,4S,5R,6R)-6-((1-carboxy-2-(4-((6-methoxy-1-methyl-1H-benzo[d]imidazol-2-yl)methoxy)phenyl)ethylthio)carbonylamino)-3,4,5-trihydroxytetrahydro-2H-pyran-2-carboxylic acid formation at 20 uM after 2 hrs by radio-HPLC/LC-MS/MS analysis in presence of NADPH-generating system/SAM; format: ADME
# T1 sequence (P10632 whole entry): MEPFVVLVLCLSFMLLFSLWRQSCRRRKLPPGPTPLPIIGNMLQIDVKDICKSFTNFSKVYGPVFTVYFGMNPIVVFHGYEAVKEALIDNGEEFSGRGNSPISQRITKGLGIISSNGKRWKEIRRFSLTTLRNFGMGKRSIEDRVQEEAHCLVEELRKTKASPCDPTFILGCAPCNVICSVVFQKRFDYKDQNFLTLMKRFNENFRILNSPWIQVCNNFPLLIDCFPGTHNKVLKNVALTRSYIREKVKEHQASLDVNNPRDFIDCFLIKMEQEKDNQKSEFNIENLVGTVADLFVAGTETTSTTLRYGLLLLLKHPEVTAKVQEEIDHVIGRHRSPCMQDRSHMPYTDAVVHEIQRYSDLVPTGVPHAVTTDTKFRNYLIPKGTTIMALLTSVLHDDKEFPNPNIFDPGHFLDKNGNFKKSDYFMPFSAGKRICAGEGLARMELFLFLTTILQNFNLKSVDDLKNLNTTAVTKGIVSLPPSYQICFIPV
# [1] = molecular target: T2, UDP-glucuronosyltransferase 2B4 (Homo sapiens, UniProt P06133); assay: (§1) Activity of human UGT2B4 expressed in microsomes isolated from baculovirus infected insect cell assessed as enzyme-mediated (2S,3S,4S,5R,6R)-3,4,5-trihydroxy-6-(5-(4-((6-methoxy-1-methyl-1H-benzo[d]imidazol-2-yl)methoxy)benzyl)-2,4-dioxothiazolidin-3-yl)tetrahydro-2H-pyran-2-carboxylic acid formation at 20 uM after 4 hrs by radio-HPLC/LC-MS/MS analysis in presence of UDPGA; format: ADME
# T2 sequence (P06133 whole entry): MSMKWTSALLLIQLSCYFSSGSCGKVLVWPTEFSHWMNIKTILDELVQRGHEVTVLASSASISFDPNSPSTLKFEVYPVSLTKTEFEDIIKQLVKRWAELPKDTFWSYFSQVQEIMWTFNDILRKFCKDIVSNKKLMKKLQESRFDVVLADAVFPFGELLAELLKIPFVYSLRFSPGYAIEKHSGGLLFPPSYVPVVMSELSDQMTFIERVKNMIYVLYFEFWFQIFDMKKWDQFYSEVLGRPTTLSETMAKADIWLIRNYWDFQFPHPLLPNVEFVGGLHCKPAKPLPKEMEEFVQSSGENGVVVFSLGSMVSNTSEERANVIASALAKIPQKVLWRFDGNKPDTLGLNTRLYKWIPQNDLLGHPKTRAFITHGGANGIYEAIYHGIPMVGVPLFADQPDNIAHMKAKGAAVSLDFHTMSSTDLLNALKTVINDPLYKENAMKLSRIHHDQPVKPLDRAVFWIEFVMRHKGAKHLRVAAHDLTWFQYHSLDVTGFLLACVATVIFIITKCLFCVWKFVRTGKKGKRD
# [2] = molecular target: T3, UDP-glucuronosyltransferase 2B7 (Homo sapiens, UniProt P16662); assay: Activity of human UGT2B7 expressed in microsomes isolated from baculovirus infected insect cell assessed as enzyme-mediated 2-((4-((2,4-dioxothiazolidin-5-yl)methyl)phenoxy)methyl)-1-methyl-1H-benzo[d]imidazol-6-yl hydrogen sulfate formation at 20 uM after 4 hrs by radio-HPLC/LC-MS/MS analysis; format: ADME
# T3 sequence (P16662 whole entry): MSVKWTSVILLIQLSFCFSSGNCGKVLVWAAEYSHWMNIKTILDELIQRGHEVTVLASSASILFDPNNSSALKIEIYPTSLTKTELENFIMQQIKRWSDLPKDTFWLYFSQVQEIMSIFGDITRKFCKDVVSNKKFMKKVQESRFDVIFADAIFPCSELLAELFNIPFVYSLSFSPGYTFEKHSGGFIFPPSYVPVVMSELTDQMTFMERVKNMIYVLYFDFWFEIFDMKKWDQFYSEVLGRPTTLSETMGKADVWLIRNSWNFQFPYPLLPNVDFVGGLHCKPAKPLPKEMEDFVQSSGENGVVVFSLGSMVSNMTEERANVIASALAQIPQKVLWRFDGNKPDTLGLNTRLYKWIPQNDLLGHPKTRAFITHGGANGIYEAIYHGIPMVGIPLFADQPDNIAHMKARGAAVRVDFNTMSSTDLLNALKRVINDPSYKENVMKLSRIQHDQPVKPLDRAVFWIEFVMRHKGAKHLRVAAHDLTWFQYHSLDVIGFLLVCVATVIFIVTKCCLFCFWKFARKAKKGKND
# Liver microsome = assay: Drug metabolism in Sprague-Dawley rat liver microsomes assessed as formation of 5-(4-((6-methoxy-1H-benzo[d]imidazol-2-yl)methoxy)benzyl)thiazolidine-2,4-dione at 20 uM after 2 hrs by radio-HPLC/LC-MS/MS analysis in presence of NADPH-generating system and NADPH-generating system/SAM; format: ADME
# [3] = Drug metabolism in rat hepatocytes assessed as formation of 5-(4-((6-hydroxy-1-methyl-1H-benzo[d]imidazol-2-yl)methoxy)benzyl)thiazolidine-2,4-dione at 30 uM after 3 hrs by radio-HPLC/LC-MS/MS analysis in presence of NADPH-generating system and NADPH-generating system/SAM; format: ADME, cell-based, Hepatocyte
# Cytochrome P450 3A4 = Cytochrome P450 3A4 (Homo sapiens, UniProt P08684); assay: Activity of human CYP3A4 expressed in microsomes isolated from baculovirus infected insect cell assessed as enzyme-mediated 3-(4-((6-methoxy-1-methyl-1H-benzo[d]imidazol-2-yl)methoxy)phenyl)-2-(methylthio)propanoic acid formation at 20 uM after 2 hrs by radio-HPLC/LC-MS/MS analysis in presence of NADPH-generating system/SAM and UDPGA/SAM; format: ADME
# [4] = molecular target: T3, UDP-glucuronosyltransferase 2B7; assay: Activity of human UGT2B7 expressed in microsomes isolated from baculovirus infected insect cell assessed as enzyme-mediated 2-mercapto-3-(4-((6-methoxy-1-methyl-1H-benzo[d]imidazol-2-yl)methoxy)phenyl)propanamide formation at 20 uM after 4 hrs by radio-HPLC/LC-MS/MS analysis in presence of NADPH-generating system and NADPH-generating system/SAM in presence of UDPGA and UDPGA/SAM; format: ADME
# [5] = molecular target: T3, UDP-glucuronosyltransferase 2B7; assay: as §1, with “UGT2B7” for “UGT2B4”, “UDPGA and UDPGA/SAM” for “UDPGA”; format: ADME
# Cytochrome P450 2C9 = Cytochrome P450 2C9 (Homo sapiens, UniProt P11712); assay: Activity of human CYP2C9 expressed in microsomes isolated from baculovirus infected insect cell assessed as enzyme-mediated 2-hydroxy-3-(4-((6-methoxy-1-methyl-1H-benzo[d]imidazol-2-yl)methoxy)phenyl)propanamide formation at 20 uM after 2 hrs by radio-HPLC/LC-MS/MS analysis in presence of NADPH-generating system and NADPH-generating system/SAM; format: ADME
# [6] = Drug metabolism in human hepatocytes assessed as formation of 5-hydroxy-5-(4-((6-methoxy-1-methyl-1H-benzo[d]imidazol-2-yl)methoxy)benzyl)thiazolidine-2,4-dione at 30 uM after 3 hrs by radio-HPLC/LC-MS/MS analysis in presence of NADPH-generating system and NADPH-generating system/SAM; format: ADME, cell-based, Hepatocyte
# [7] = molecular target: T3, UDP-glucuronosyltransferase 2B7; assay: Activity of human UGT2B7 expressed in microsomes isolated from baculovirus infected insect cell assessed as enzyme-mediated 2-amino-3-((1-carboxy-2-(4-((6-methoxy-1-methyl-1H-benzo[d]imidazol-2-yl)methoxy)phenyl)ethyl)disulfanyl)propanoic acid formation at 20 uM after 4 hrs by radio-HPLC/LC-MS/MS analysis in presence of UDPGA and UDPGA/SAM; format: ADME
# [8] = Drug metabolism in po dosed monkey bile assessed as formation of 5-(4-((6-methoxy-1H-benzo[d]imidazol-2-yl)methoxy)benzyl)thiazolidine-2,4-dione; format: ADME, organism-based, Macaca mulatta; settings: rhesus monkey, in vivo
# Cytochrome P450 2C9, sequence (P11712 whole entry): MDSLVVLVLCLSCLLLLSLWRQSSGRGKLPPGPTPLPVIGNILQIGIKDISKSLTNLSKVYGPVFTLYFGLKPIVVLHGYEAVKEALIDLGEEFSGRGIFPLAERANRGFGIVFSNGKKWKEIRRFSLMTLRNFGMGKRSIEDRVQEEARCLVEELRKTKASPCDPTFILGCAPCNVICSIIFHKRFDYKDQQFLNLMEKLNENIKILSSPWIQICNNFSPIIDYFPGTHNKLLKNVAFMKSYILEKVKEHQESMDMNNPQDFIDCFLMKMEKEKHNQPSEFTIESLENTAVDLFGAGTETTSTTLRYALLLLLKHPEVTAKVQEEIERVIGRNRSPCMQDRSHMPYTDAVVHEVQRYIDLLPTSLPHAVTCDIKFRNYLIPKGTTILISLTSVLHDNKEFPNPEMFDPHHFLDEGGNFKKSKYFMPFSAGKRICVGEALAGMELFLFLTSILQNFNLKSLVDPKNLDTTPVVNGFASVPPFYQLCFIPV
# Cytochrome P450 3A4, sequence (P08684 whole entry): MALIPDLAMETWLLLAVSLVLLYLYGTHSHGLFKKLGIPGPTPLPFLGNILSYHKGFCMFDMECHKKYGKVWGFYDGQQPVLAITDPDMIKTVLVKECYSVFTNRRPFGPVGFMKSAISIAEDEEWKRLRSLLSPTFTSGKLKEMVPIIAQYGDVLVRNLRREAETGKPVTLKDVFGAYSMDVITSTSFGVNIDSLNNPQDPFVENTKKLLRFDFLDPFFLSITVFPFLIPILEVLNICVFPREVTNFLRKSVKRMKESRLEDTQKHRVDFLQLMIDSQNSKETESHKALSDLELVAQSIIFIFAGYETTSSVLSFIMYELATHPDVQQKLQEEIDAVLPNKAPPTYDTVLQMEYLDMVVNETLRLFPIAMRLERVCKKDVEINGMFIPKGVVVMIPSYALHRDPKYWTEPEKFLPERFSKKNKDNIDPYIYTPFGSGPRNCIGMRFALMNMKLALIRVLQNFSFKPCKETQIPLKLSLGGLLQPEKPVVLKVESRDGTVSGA
structure (smiles),measurement,setting,value
COc1ccc2nc(COc3ccc(C[14CH]4SC(=O)NC4=O)cc3)n(C)c2c1.Cl (racemic),Drug metabolism,Cytochrome P450 2C8,metabolite_not_detected
same,Drug metabolism,[1],metabolite_not_detected
same,Drug metabolism,[2],metabolite_not_detected
same,Drug metabolism,Liver microsome,metabolite_detected
same,Drug metabolism,[3],metabolite_detected
same,Drug metabolism,Cytochrome P450 3A4,metabolite_not_detected
same,Drug metabolism,[4],metabolite_not_detected
same,Drug metabolism,[5],metabolite_detected
same,Drug metabolism,Cytochrome P450 2C9,metabolite_detected
same,Drug metabolism,[6],metabolite_detected
same,Drug metabolism,[7],metabolite_not_detected
same,Drug metabolism,[8],metabolite_detected
